Measured values reported in patent US9616051B2, “Drug targets to overcome de novo drug-resistance in multiple myeloma” (H. Lee Moffitt Cancer Center and Research Institute, Inc., priority 2008, dated 2017).
“Also recorded” adds a separate entry of the source. Read-outs that look alike come from different tables or passages of the source.

Tests used:
RPMI-8226 (8226) = assay: CT-Glo cytotoxicity assay, 8226 cells; type: cell-based, human; conditions: Homo sapiens, RPMI-8226
From the text: (§1) Compounds identified in Example 1 as the top scoring potential inhibitors for each of the two NES (20 each) were obtained from NCI and structures of these molecules confirmed using NMR and mass spectroscopy analysis, seen in FIGS. 4(A)-(C) and 5(A)-(D). The potential inhibitors were followed up using in vitro model cell cultures. MM cell lines NCI-H929 (H929) and RPMI-8226 (8226) were obtained from and tested for authenticity by the American Type Culture Collection (Manassas, Va.). All cell lines were grown as described previously (Turner, et al., Human topoisomerase IIalpha nuclear export is mediated by two CRM-1-dependent nuclear export signals. J Cell Sci 2004; 117: 3061-71).
(§2) The molecules with the highest docking scores were assayed for IC50 values. Cultures were tested for cytotoxicity using the CellTiter-Glo assay (CT-Glo cytotoxicity assay; Promega, Madison, Wis.), a luminescence-based homogeneous method for determining the number of viable cells in culture based on quantitation of the ATP present, which signals the presence of metabolically active cells (Corsino, et al., A novel class of cyclin-dependent kinase inhibitors identified by molecular docking act through a unique mechanism. J Biol Chem 2009; 284: 29945-55; Homsi, et al., Src activation in melanoma and Src inhibitors as therapeutic agents in melanoma. Melanoma Res 2009; 19: 167-75). All cells were assayed at log-phase growth conditions. Luminescence was measured with a Synergy 4 microplate reader (Bio-Tek Instruments, Inc., Winooski, Vt.). IC50 values were determined using a sigmoidal equilibrium model regression using XLfit version 5.2 (ID Business Solutions Ltd., Surrey, UK) (Corsino, et al., A novel class of cyclin-dependent kinase inhibitors identified by molecular docking act through a unique mechanism. J Biol Chem 2009; 284: 29945-55).

NCI-H929 (H929) = assay: CT-Glo cytotoxicity assay, H929 cells; type: cell-based, human; conditions: Homo sapiens, NCI-H929, 72-h CT-Glo, average ± SD
From the text: as §1, §2

HL-60 = assay: CT-Glo cytotoxicity assay, HL-60 cells; type: cell-based; conditions: Homo sapiens, 72-h CT-Glo
Method: as §2

Kg-1a = assay: CT-Glo cytotoxicity assay, Kg-1a cells; type: cell-based; conditions: Homo sapiens, 72-h CT-Glo
Method: as §2

FLOW = assay: CT-Glo cytotoxicity assay, FLOW cells; type: cell-based; conditions: 72-h CT-Glo, average ± SD
Method: as §2

WI-38 = assay: CT-Glo cytotoxicity assay, WI-38 cells; type: cell-based; conditions: Homo sapiens, 72-h CT-Glo
Method: as §2

PBMC = assay: CT-Glo cytotoxicity assay, PBMC; type: cell-based; conditions: 72-h CT-Glo, average ± SD
Method: as §2

topo IIα [1] = target: T1, topo IIα (Homo sapiens, UniProt P11388); assay: Immunofluorescence microscopy of intracellular location of topo IIα; type: cell-based; conditions: 25 μM NES inhibitor
T1 construct: effect on the intracellular location of topo IIα in treated MM cells; endogenous in cells; host or cells: human multiple myeloma cells NCI-H929
T1 sequence (P11388 whole entry): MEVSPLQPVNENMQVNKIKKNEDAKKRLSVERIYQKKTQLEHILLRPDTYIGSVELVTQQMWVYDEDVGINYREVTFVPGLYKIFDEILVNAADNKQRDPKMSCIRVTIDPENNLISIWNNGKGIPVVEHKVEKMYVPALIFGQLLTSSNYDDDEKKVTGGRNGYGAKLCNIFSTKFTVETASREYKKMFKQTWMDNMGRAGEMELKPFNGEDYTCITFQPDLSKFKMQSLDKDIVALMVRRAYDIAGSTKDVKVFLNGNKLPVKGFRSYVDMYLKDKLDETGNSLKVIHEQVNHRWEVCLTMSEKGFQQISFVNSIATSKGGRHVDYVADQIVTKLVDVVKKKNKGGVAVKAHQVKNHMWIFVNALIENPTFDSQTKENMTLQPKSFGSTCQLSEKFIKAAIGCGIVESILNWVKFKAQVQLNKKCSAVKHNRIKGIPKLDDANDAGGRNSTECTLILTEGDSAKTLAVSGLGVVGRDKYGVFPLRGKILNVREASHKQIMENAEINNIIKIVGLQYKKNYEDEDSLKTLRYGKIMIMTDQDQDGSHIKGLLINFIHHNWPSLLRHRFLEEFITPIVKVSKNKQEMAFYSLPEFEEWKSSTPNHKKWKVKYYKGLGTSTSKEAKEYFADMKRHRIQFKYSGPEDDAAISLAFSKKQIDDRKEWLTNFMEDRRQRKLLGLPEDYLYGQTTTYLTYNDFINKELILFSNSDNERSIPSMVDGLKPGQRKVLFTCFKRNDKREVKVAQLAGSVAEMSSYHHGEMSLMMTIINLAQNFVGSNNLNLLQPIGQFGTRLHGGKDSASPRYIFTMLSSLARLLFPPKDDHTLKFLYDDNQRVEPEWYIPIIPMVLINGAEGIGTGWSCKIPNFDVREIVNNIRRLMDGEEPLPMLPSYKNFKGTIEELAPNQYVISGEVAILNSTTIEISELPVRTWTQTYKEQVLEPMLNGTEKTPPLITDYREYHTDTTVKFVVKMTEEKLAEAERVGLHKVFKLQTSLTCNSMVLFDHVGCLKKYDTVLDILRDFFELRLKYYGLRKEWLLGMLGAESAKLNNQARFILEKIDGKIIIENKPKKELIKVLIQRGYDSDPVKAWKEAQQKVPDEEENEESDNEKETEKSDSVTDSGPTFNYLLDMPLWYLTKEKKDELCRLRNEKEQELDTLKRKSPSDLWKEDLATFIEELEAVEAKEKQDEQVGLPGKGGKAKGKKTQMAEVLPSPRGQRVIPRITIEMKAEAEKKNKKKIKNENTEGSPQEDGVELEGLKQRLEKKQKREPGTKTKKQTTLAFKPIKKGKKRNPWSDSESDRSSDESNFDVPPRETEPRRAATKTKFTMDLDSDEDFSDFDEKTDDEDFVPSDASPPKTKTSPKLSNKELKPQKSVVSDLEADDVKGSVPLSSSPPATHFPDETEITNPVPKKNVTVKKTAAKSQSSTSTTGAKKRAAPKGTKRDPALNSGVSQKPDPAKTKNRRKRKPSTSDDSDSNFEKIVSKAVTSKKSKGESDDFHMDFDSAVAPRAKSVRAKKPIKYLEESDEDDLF
Method: Slides were viewed with a fully automated, upright Zeiss Axio-ImagerZ.1 microscope (Carl Zeiss A G, Oberkochen, Germany). Briefly, the DAPI image was used as a mask to segment the nuclear region from the Alexa 594 image. The remaining portion of the Alexa 594 image represents the cytosol, and individual nucleus and cytosol images were analyzed.
H929 cells were mock treated with 0.1% DMSO in media or with 25 μM of NES inhibitor. The high density control cells, seen in FIG. 9(A) show high levels of topo II staining outside the nucleus, evidencing export of topo II from the nucleus.

CRM1-topo IIα complexes = target: T2, CRM1-topo IIα complexes (Homo sapiens, UniProt P11388); assay: Co-immunoprecipitation of CRM1 with topo IIα; type: cell-based
T2 construct: CRM1-topo IIα complexes were isolated from cells by immunoprecipitation; endogenous in cells
T2 sequence (P11388 whole entry, one chain of several): as the sequence (P11388 whole entry) above
Method: Human myeloma cells were placed at plateau concentrations (4×10^6 cells/ml), and NES inhibitors were added at 25 μM for 20 hours. Cells were collected, washed in PBS, and fractionated by a method adapted from Li et al. (Li Y, Bor Y C, Misawa Y, Xue Y, Rekosh D, Hammarskjold M L. An intron with a constitutive transport element is retained in a Tap messenger RNA. Nature 2006; 443: 234-7). Separated fractions containing nuclei or precipitated cytosol were dissolved in 2% SDS buffer and assayed by SDS-PAGE Western blot analysis. Blots were probed with an anti-topo IIα Kis1 antibody (Millipore Corp.). Lead compounds were also tested to determine if nuclear export inhibition was specific to topo IIα protein. Cells grown at log-phase concentrations were also fractionated. […], CRM1-topo IIα complexes were isolated from cells by immunoprecipitation using a combination of both protein A and protein G magnetic beads according to the manufacturer's protocol (Miltenyi Biotec, Cologne, Germany). Co-immunoprecipitation was performed with 2 μg of anti-CRM1 antibody (Santa Cruz Biotechnology, Inc., Santa Cruz, Calif.). Immunoprecipitation samples were separated by SDS-PAGE, transferred to nitrocellulose membranes, and probed with anti-topo IIα Kis1 antibody (Millipore, Corp., Billerica, Mass.) and anti-mouse horseradish peroxidase secondary antibody.

p53 = p53 nuclear export in low-density myeloma cells (nuclear fraction Western blot); type: cell-based, human; conditions: H929 at low density (log growth), 25 μM, 20 hours
Method: FIG. 14 is a blot of lead compounds tested to determine if nuclear export inhibition was specific to topo IIα protein. p53 was cycled from the nucleus into the cytoplasm in MM cells cultured at log growth conditions. Cells grown at log-phase concentrations were treated with the lead NES inhibitors (25 μM) or a leptomycin control for 20 hours and chemically fractionated. Nuclei were assayed by SDS-PAGE Western blot analysis for p53 protein (anti-p53 (DO-1), Santa Cruz Biotech, Inc). […] Lamin A/C (anti-lamin A/C, BD Pharmingen) is shown as a loading control.
Cells grown at low concentrations were treated with the lead NES inhibitors (25 μM) or a leptomycin B (5 nM) control for 20 hours and chemically fractionated. Nuclei were assayed by SDS-PAGE Western blot analysis for p53 protein.

[2] = system: cells modeling AML, breast cancer and fibroblastoma; assay: Combination of NCI-9138 with other drugs (FIG. 8); type: cell-based; conditions: 25 μM with doxorubicin 2 μM, bortezomib 10 nM, dexamethasone, lenalidomide, melphalan, topotecan 10 μM
topo IIα [3] = target: T1, topo IIα; assay: Nuclear-cytoplasmic fractionation and Western blot for topo IIα; type: cell-based; conditions: RPMI-H929 cells, 100 μM, 24 hours, relative to untreated controls
[4] = system: high-density MM cells (H929); assay: Cleaved caspase 3 apoptosis assay, sensitization to doxorubicin

O=C1c2ccccc2C(=O)C1C(=O)C(c1ccccc1)c1ccccc1 [NCI-9138, 2-(diphenylacetyl)-1H-indene-1,3(2H)-dione]
IC50 (RPMI-8226 (8226); 8226 cells, 72-h CT-Glo, log-phase (low-density), average ± SD, read-out: IC50): 12.7 ± 4.5 µM
IC50 (RPMI-8226 (8226); high-density cells, single agent (data not shown), read-out: IC50, viability of high-density cells): 9.4 µM
IC50 (NCI-H929 (H929)): 22.2 µM
IC50 (HL-60): 28.3 µM
IC50 (Kg-1a): 21.3 µM
IC50 (FLOW): 31.7 µM
IC50 (WI-38): 30.1 µM
IC50 (PBMC): 32.5 µM
Nuclear export of topo IIα by immunofluorescence (topo IIα [1]; 20 hours, high-density (plateau) MM cells): overlapping staining of topo II with DAPI
Fold-increase nuclear topo IIα (topo IIα [1]; H929 cells, nucleus v cytoplasm fluorescence vs untreated high-density controls): 2.61 fold
Co-immunoprecipitation of CRM1 with topo IIα (CRM1-topo IIα complexes; 50 μM for 20 hours (FIG. 12 legend)): blocked
Binding of topo IIα to CRM1 (co-immunoprecipitation) (CRM1-topo IIα complexes; MM cells, 25 μM for 20 hours): prevented from binding to CRM1
Nuclear export of p53 (p53): did not prevent export of p53
Synergism of NCI-9138 in drug combinations [2]: Synergism was seen with doxorubicin; also recorded: synergized exclusively with the topo II inhibitor doxorubicin
Cytoplasmic level / nuclear localization of topo IIα, fractionation Western blot (topo IIα [3]): reduced cytoplasmic levels of topo IIα equivalent to that produced by the CRM-1 inhibitor ratjadone C
Sensitization of high-density MM cells to doxorubicin / synergism ([4]; 25 μM NES inhibitor, doxorubicin 2 μM): synergized with the topo II inhibitor doxorubicin
Fold-Increased sensitization to dox ([4]; dox/drug (dox 2 μM) divided by dox alone): 4.13 ± 1.83 fold
